Test results as given in patent US10167261B2, “2-oxo-3,4-dihydroquinolin-6-yl sulphonamide CPDS and their use as plant growth regulators” (THE REGENTS OF THE UNIVERSITY OF CALIFORNIA, priority 2014, dated 2019).

Experiments:
[1] = test system: Arabidopsis seeds; test: Arabidopsis germination inhibition analysis; assay type: in vivo; settings: assessed after 3 days at 22° C. in the dark
Method: To analyse the effect of compounds on inhibition of germination, Arabidopsis seeds after-ripened for about 4 weeks were surface-sterilized with a solution containing 5% NaClO and 0.05% Tween-20 for 10 minutes, and rinsed with water four times. Sterilized seeds were suspended with 0.1% agar and sowed on 0.8% solidified agar medium containing ½ Murashige and Skoog (MS) salts (Sigma-Aldrich) in the presence of the relevant treatment, stored at 4° C. for 4 days, and then transferred to 22° C. under the dark conditions. Germination was assessed after 3 days.

[2] = test system: soybean plants (variety S20-G7); test: Water use (WU) of soybean plants after foliar spray; assay type: in vivo; settings: repeated experiment (Table B2), rate not given
Method: Chemicals were tested for their effect on reducing plant water use (WU) after being applied by foliar sprays onto soybean plants (variety S20-G7)—grown in controlled environment plant growth chambers. All chemicals were applied using an emulsifiable concentrate (EC) formulation that was diluted with water containing additional surfactant (EXTRAVON 1 g/20 L) to the indicated concentrations. Plant WU was assessed by multiple pot weighing processes before and after application of the chemicals at the indicated times (expressed in days after application (DAA)). The WU data before application was used to correct for differences in water use due to non-treatment effects (e.g. due to differences in plant size). The results are expressed compared to negative control treatment (water with EXTRAVON 1 g/20 L).
Application of the chemicals (0 DAA) takes place approximately between 8 to 9:30 a.m. […] The cumulative total WU (0-2 DAA) is calculated by summing the WU data mentioned above.

[3] = test system: corn plants (variety NK OCTET); test: Water use (WU) of corn plants after foliar spray; assay type: in vivo; settings: foliar spray at 500 μM, vs negative control
Method: Compounds were tested for their effect on reducing plant water use as follows. The compounds were applied by foliar spray to 12 day old corn plants (variety NK OCTET) grown in controlled environment plant growth chambers. All compounds were applied using an emulsifiable concentrate (EC) formulation that was diluted to the desired concentrations with water containing 0.4% of the adjuvant rape seed methyl ester. Plant water use during the day was assessed by repeated weighing of the pots in which the plants were grown before and after application of the compounds at the indicated times (expressed in days after application (DAA)). The water use data before application was used to correct any differences in water use arising due to non-treatment effects (e.g. due to differences in plant size). The untransformed water use values were subjected to an analysis of covariance, fitting the effect of treatment and using the baseline water use 1 day before application as a covariate. Application of the chemicals (0 DAA) takes place approximately between 8 to 9:30 a.m. WU is measured within day time (chamber light is on 6:00 to 20:00) at these timepoints: 0 DAA AM (10:30-12:50) and 0 DAA PM (14:00-19:50), 1 DAA AM (7:30-12:50) and 1 DAA PM (14:00-19:50) and 2 DAA AM (7:30-12:50). The cumulative total WU (0-2 DAA) is calculated by summing the WU data mentioned above.

[4] = biological target: PYR1-HAB1 (Arabidopsis thaliana (Mouse-ear cress), UniProt O49686); test: PP2C activity assay, PYR1-HAB1; assay type: biochemical; settings: 100 nM PP2C, 200 nM PYR/PYL protein, 4-nitrophenyl phosphate substrate; read-out: IC50 of inhibition of PYR1-HAB1
Text: (§1) The protein HAB1, a type 2 protein phosphatase (PP2C), is inhibited by PYR/PYL proteins in dependence of abscisic acid or other receptor agonists. The potency of a receptor agonists correlates with the level of inhibition of the PP2C, and therefore the IC50 (PYR1-HAB1) can be used to compare the relative activity of different chemical analogues. Since inhibition of PP2C correlates to inhibition of seed-germination and increase in plant water-use efficiency, it serves as a powerful tool to quantify biological potential of a chemical acting as an analogue of abscisic acid.
(§2) HAB1 and PYL proteins were expressed and purified as described in Park et al. ((2009) Science 324(5930):1068-1071), with minor modifications. To obtain GST-HAB1, the HAB1 cDNA was cloned into pGex-2T. Expression was conducted in BL21[DE3]pLysS host cells. Transformed cells were pre-cultured overnight, transferred to LB medium and cultured at 30° C. to culture A600 of ˜0.5.
(§3) The culture was then cooled on ice and MnCl2 added to 4 mM and IPTG added to 0.3 mM. After 16 hours incubation at 15° C., cells were harvested and recombinant proteins were purified on glutathione agarose as described in Park et al. To obtain 6×His-PYL receptor fusion proteins, expression constructs previously described by Okamoto et al. 2013, (PNAS 110(29): 12132-12137) were used. ABA receptors were expressed and purified as described above.
(§4) For the values shown in Table B5, PP2C activity assays using recombinant receptors and PP2Cs were carried out as follows: purified proteins were pre-incubated in 160 μl assay buffer containing 100 mM Tris-HCl-pH7.9, 100 mM NaCl, 3 μg bovine serum albumin, 0.1% 2-mercaptoethanol, 1 mM MnCl2 with ABA or agonists (compounds of the present invention) for 30 minutes at room temperature. Reactions were started by adding 40 μL of a reaction solution containing 25 mM 4-nitrophenyl phosphate in assay buffer after which absorbance measurements were immediately collected using a 405 nm on Wallac plate reader. Reactions contained 100 nM PP2C and 200 nM PYR/PYL proteins. […] For inferring IC50 values, calculations from receptor/PP2C assays containing different concentrations (ranging from 1 μM to 4 nM) were. The obtained dose response data was fit to a log (inhibitor) versus response-(variable slope) model using non-linear regression to infer the IC50s, using Graph Pad Prism 6.0.

[5] = biological target: PYL2-HAB1 (Arabidopsis thaliana (Mouse-ear cress), UniProt O80992); test: PP2C activity assay, PYL2-HAB1; assay type: biochemical; settings: 100 nM PP2C, 200 nM PYR/PYL protein, 4-nitrophenyl phosphate substrate; read-out: IC50 of inhibition of PYL2-HAB1
Text: as §1, §2, §3, §4

[6] = test system: corn plants (variety NK OCTET); test: Water use (WU) of corn plants after foliar spray; assay type: in vivo; settings: foliar spray at 500 μM, vs negative control; remark: listed apart in the source

Sequence of PYL2-HAB1 (O80992 whole entry, looked up): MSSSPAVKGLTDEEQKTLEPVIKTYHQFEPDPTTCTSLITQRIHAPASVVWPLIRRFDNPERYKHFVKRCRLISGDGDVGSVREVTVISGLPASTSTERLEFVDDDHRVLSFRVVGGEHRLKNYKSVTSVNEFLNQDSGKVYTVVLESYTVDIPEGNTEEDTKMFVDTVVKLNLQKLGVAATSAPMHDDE
Sequence of PYL2-HAB1 (Q9CAJ0 whole entry partner, looked up): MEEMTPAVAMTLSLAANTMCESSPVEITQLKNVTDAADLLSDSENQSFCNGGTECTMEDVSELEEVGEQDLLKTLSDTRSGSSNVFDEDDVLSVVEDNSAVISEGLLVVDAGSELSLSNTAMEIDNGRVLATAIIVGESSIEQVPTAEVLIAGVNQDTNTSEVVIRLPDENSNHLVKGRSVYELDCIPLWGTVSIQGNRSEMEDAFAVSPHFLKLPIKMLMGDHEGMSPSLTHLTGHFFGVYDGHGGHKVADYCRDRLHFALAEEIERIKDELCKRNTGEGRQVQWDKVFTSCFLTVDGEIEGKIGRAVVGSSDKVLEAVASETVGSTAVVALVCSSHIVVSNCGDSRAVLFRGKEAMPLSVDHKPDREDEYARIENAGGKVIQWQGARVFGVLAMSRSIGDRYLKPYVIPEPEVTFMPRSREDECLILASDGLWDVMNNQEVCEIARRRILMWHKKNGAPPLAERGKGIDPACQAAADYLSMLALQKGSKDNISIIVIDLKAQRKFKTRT
Sequence of PYR1-HAB1 (O49686 whole entry, looked up): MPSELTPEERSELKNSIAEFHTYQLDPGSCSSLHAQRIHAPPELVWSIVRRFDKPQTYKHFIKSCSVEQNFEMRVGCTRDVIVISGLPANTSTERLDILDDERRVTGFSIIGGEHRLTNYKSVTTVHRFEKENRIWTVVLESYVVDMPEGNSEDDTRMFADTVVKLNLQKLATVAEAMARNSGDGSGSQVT
Sequence of PYR1-HAB1 (Q9CAJ0 whole entry partner, looked up): as the sequence (Q9CAJ0 whole entry partner, looked up) above

CCCN1C(=O)CCc2cc(NS(=O)(=O)Cc3ccc(C4CC4)cc3)ccc21 [drawing 29]
% germination at 1 μM [1]: 42%
% germination at 5 μM [1]: 0%

CCCN1C(=O)CCc2cc(NS(=O)(=O)Cc3ccc(C4CC4)cc3)ccc21 [Compound 1.004, 1-(4-cyclopropylphenyl)-N-(2-oxo-1-propyl-3,4-dihydroquinolin-6-yl)methanesulfonamide]
% WU 2 DAA PM [2]: −12.9%
Total % WU 0 to 2 DAA ([2]; cumulative): −25%
Total % WU 0 to 2 DAA ([3]; cumulative): −11.8%
% WU 0 DAA AM [3]: −17.9%
% WU 0 DAA PM [3]: −12.4%
% WU 1 DAA AM [3]: −12.4%
% WU 1 DAA PM [3]: −12.1%
% WU 2 DAA AM [3]: −9.8%
IC50 [4]: 51 nM
IC50 [5]: 177 nM
% WU 2 DAA PM [6]: −10.2%

CCCN1C(=O)CCc2cc(NS(=O)(=O)Cc3ccc(C)cc3)ccc21 [drawing 28, reference compound]
% germination at 1 μM [1]: 46%
% germination at 5 μM [1]: 0%
